Source: ChEMBL document CHEMBL1155947, “Discovery of a novel series of benzoic acid derivatives as potent and selective human beta3 adrenergic receptor agonists with good oral bioavailability. 3. Phenylethanolaminotetraline (PEAT) skeleton containing biphenyl or biphenyl ether moiety” (J Med Chem, 2008)

Experiments:
[1] = biological target: Beta-3 adrenergic receptor (Homo sapiens, UniProt P13945); experiment: Agonist activity at human cloned beta3 adrenergic receptor expressed in CHO cells assessed as cAMP accumulation; format: functional, cell-based
Beta-3 adrenergic receptor (Homo sapiens, UniProt P13945), sequence (P13945 whole entry): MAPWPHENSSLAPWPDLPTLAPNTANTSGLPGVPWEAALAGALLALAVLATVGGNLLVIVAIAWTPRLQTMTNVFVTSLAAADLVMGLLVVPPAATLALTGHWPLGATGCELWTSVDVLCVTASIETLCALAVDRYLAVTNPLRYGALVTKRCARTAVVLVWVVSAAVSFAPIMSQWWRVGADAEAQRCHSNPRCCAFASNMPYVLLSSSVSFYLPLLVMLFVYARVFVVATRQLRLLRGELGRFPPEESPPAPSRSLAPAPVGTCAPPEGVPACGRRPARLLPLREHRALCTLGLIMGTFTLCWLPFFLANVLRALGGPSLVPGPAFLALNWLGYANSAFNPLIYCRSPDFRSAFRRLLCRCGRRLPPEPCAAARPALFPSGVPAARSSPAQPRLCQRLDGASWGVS

[2] = organism: Homo sapiens; experiment: Ratio of EC50 for human cloned beta-1 adrenergic receptor to EC50 for human cloned beta3 adrenergic receptor
[3] = biological target: Beta-2 adrenergic receptor (Homo sapiens, UniProt P07550); experiment: Agonist activity at human beta2 adrenergic receptor expressed in CHO cells assessed as cAMP accumulation; format: functional, cell-based
Beta-2 adrenergic receptor, sequence (P07550 whole entry): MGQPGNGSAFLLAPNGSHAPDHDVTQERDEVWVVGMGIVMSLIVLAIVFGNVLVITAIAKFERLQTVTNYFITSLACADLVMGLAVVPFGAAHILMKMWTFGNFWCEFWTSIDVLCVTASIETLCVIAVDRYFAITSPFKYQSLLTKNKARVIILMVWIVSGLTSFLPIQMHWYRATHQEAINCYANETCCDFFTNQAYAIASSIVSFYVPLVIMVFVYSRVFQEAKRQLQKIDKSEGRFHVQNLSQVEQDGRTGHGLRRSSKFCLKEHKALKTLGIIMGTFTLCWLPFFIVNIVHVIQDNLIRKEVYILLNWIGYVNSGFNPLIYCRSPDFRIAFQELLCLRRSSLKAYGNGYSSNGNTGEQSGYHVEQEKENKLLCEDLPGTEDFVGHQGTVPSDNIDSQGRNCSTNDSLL

[4] = Cmax in dog at 0.2 mg/kg, po by cassette assay; format: ADME, organism-based, Canis lupus familiaris; parameters: dose 0.2 mg/kg, route oral; conditions: in vivo
[5] = AUC (0 to 24 hrs) in dog at 0.2 mg/kg, po by cassette assay; format: ADME, organism-based, Canis lupus familiaris; parameters: time < 24 hr, dose 0.2 mg/kg, route oral; conditions: plasma
[6] = test system: Canis familiaris; experiment: Ratio of Cmax for drug to Cmax for 3-[((7S)-7-{[(2R)-2-(3-Chlorophenyl)-2-hydroxyethyl]amino}-5,6,7,8-tetrahydro-2-naphthalenyl)oxy]benzoic acid hydrochloride in dog at 0.1 or 0.20 mg/kg, po by cassette dosing assay; format: ADME, organism-based, Canis lupus familiaris; parameters: dose 0.2 mg/kg, route oral; conditions: in vivo, 0.2 mg/kg
[7] = test system: Canis familiaris; experiment: Ratio of AUC for drug to AUC for 3-[((7S)-7-{[(2R)-2-(3-Chlorophenyl)-2-hydroxyethyl]amino}-5,6,7,8-tetrahydro-2-naphthalenyl)oxy]benzoic acid hydrochloride in dog at 0.1 or 0.20 mg/kg, po by cassette dosing assay; format: ADME, organism-based, Canis lupus familiaris; parameters: dose 0.2 mg/kg, route oral; conditions: in vivo, 0.2 mg/kg
[8] = Terminal half life in dog at 0.1 mg/kg, iv by cassette assay; format: ADME, organism-based, Canis lupus familiaris; parameters: dose 0.1 mg/kg, route intravenous; conditions: in vivo
[9] = Total clearance in dog at 0.1 mg/kg, iv by cassette assay; format: ADME, organism-based, Canis lupus familiaris; parameters: dose 0.1 mg/kg, route intravenous; conditions: in vivo
[10] = Oral bioavailability in dog at 0.1 mg/kg by cassette assay; format: ADME, organism-based, Canis lupus familiaris; conditions: in vivo
[11] = biological target: Beta-1 adrenergic receptor (Homo sapiens, UniProt P08588)
Beta-1 adrenergic receptor, sequence (P08588 whole entry): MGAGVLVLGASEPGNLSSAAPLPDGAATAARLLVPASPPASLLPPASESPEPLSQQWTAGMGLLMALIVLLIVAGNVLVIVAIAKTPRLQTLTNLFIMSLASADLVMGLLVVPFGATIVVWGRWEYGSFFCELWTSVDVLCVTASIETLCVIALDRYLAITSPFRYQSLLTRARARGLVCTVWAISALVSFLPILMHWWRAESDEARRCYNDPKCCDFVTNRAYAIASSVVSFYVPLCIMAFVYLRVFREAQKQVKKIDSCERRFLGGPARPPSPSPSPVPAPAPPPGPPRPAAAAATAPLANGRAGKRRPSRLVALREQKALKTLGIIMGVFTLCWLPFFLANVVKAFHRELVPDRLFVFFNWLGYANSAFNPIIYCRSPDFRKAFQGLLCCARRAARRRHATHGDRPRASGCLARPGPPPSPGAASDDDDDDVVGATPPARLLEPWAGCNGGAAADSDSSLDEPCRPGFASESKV
Description: Agonist activity at human cloned beta-1 adrenergic receptor expressed in CHO cells assessed as cAMP accumulation

[12] = Cmax in monkey at 1.0 mg/kg, po by cassette assay; format: ADME, organism-based, Macaca mulatta; parameters: dose 1 mg/kg, route oral; conditions: rhesus monkey, in vivo
[13] = AUC (0 to 24 hrs) in monkey at 1.0 mg/kg, po by cassette assay; format: ADME, organism-based, Macaca mulatta; parameters: time < 24 hr, dose 1 mg/kg, route oral; conditions: rhesus monkey, plasma
[14] = Cmax in rat at 1.0 mg/kg, po by cassette assay; format: ADME, organism-based; parameters: dose 1 mg/kg, route oral; conditions: in vivo
[15] = AUC (0 to 24 hrs) in rat at 1.0 mg/kg, po by cassette assay; format: ADME, organism-based; parameters: time < 24 hr, dose 1 mg/kg, route oral; conditions: plasma
[16] = Terminal half life in rat at 0.51 mg/kg, iv by cassette assay; format: ADME, organism-based; parameters: dose 0.51 mg/kg, route intravenous; conditions: in vivo
[17] = Total clearance in rat at 0.51 mg/kg, iv by cassette assay; format: ADME, organism-based; parameters: dose 0.51 mg/kg, route intravenous; conditions: in vivo
[18] = Oral bioavailability in rat at 0.51 mg/kg by cassette assay; format: ADME, organism-based; conditions: in vivo
[19] = Terminal half life in monkey at 0.32 mg/kg, iv by cassette assay; format: ADME, organism-based, Macaca mulatta; parameters: dose 0.32 mg/kg, route intravenous; conditions: rhesus monkey, in vivo
[20] = Total clearance in monkey at 0.32 mg/kg, iv by cassette assay; format: ADME, organism-based, Macaca mulatta; parameters: dose 0.32 mg/kg, route intravenous; conditions: rhesus monkey, in vivo
[21] = Oral bioavailability in monkey at 0.32 mg/kg by cassette assay; format: ADME, organism-based, Macaca mulatta; conditions: rhesus monkey, in vivo
[22] = biological target: Beta-3 adrenergic receptor (Canis lupus familiaris, UniProt O02662); experiment: Agonist activity at dog beta3 adrenergic receptor expressed in CHO cells assessed as cAMP accumulation; format: functional, cell-based
Beta-3 adrenergic receptor (Canis lupus familiaris, UniProt O02662), sequence (O02662 whole entry): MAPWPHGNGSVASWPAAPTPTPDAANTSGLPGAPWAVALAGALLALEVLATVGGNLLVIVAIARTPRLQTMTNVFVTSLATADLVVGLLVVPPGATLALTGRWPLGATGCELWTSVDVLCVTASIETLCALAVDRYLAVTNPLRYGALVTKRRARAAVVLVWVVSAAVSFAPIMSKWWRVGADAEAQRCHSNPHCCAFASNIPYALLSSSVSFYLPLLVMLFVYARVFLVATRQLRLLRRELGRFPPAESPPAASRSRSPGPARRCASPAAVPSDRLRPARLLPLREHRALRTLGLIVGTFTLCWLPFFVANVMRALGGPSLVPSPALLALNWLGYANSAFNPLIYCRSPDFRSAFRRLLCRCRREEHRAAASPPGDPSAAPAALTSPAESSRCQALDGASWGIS

[23] = test system: Canis familiaris; experiment: Inhibition of carbachol-induced increase of intravesical pressure in Beagle dog OAB model at 32 ug/kg,; format: functional; conditions: Canis lupus familiaris
[24] = Protein binding in Beagle dog serum at 32 ug/kg, iv; format: ADME, organism-based, Canis lupus familiaris; conditions: 0.032 mg/kg, read-out: PB (converted)
[25] = Selectivity for human beta3 adrenergic receptor over dog beta3 adrenergic receptor
[26] = Cmax in rat at 0.52 mg/kg, po by cassette assay; format: ADME, organism-based; parameters: dose 0.52 mg/kg, route oral; conditions: in vivo
[27] = AUC (0 to 24 hrs) in rat at 0.52 mg/kg, po by cassette assay; format: ADME, organism-based; parameters: time < 24 hr, dose 0.52 mg/kg, route oral; conditions: plasma
[28] = Cmax in dog at 0.21 mg/kg, po by cassette assay; format: ADME, organism-based, Canis lupus familiaris; parameters: dose 0.21 mg/kg, route oral; conditions: in vivo
[29] = AUC (0 to 24 hrs) in dog at 0.21 mg/kg, po by cassette assay; format: ADME, organism-based, Canis lupus familiaris; parameters: time < 24 hr, dose 0.21 mg/kg, route oral; conditions: plasma
[30] = Terminal half life in rat at 0.50 mg/kg, iv by cassette assay; format: ADME, organism-based; parameters: dose 0.5 mg/kg, route intravenous; conditions: in vivo, 0.5 mg/kg
[31] = Total clearance in rat at 0.50 mg/kg, iv by cassette assay; format: ADME, organism-based; parameters: dose 0.5 mg/kg, route intravenous; conditions: in vivo, 0.5 mg/kg
[32] = Oral bioavailability in rat at 0.50 mg/kg by cassette assay; format: ADME, organism-based; conditions: in vivo, 0.5 mg/kg
[33] = Terminal half life in dog at 0.1 mg/mL, iv by cassette assay; format: ADME, organism-based, Canis lupus familiaris; conditions: in vivo
[34] = Total clearance in dog at 0.1 mg/mL, iv by cassette assay; format: ADME, organism-based, Canis lupus familiaris; conditions: in vivo
[35] = Bioavailability in dog at 0.1 mg/mL, iv by cassette assay; format: ADME, organism-based, Canis lupus familiaris; conditions: in vivo
[36] = Cmax in dog at 0.32 mg/kg, po by cassette assay; format: ADME, organism-based, Canis lupus familiaris; parameters: dose 0.32 mg/kg, route oral; conditions: in vivo
[37] = AUC (0 to 24 hrs) in dog at 0.32 mg/kg, po by cassette assay; format: ADME, organism-based, Canis lupus familiaris; parameters: time < 24 hr, dose 0.32 mg/kg, route oral; conditions: plasma
[38] = Cmax in rat at 1.0 mg/kg, po; format: ADME, organism-based; parameters: dose 1 mg/kg, route oral; conditions: in vivo
[39] = AUC (0 to 24 hrs) in rat at 1.0 mg/kg, po; format: ADME, organism-based; parameters: time < 24 hr, dose 1 mg/kg, route oral; conditions: plasma
[40] = Terminal half life in dog at 0.12 mg/kg, iv by cassette assay; format: ADME, organism-based, Canis lupus familiaris; parameters: dose 0.12 mg/kg, route intravenous; conditions: in vivo
[41] = Total clearance in dog at 0.12 mg/kg, iv by cassette assay; format: ADME, organism-based, Canis lupus familiaris; parameters: dose 0.12 mg/kg, route intravenous; conditions: in vivo
[42] = Oral bioavailability in dog at 0.12 mg/kg by cassette assay; format: ADME, organism-based, Canis lupus familiaris; conditions: in vivo
[43] = Terminal half life in rat at 0.32 mg/kg, iv; format: ADME, organism-based; parameters: dose 0.32 mg/kg, route intravenous; conditions: in vivo
[44] = Total clearance in rat at 0.32 mg/kg, iv; format: ADME, organism-based; parameters: dose 0.32 mg/kg, route intravenous; conditions: in vivo
[45] = Oral bioavailability in rat at 0.32 mg/kg; format: ADME, organism-based; conditions: in vivo

| SMILES | EC50 [1] [nM] | Ratio EC50 [2] | EC50 [3] [nM] | Cmax [4] [ng/mL] | AUC(0-t) at 24 h [5] [ng·h/mL] | Ratio [6] | Ratio AUC [7] | half-life [8] [h] | clearance [9] [mL/min/kg] | bioavailability [10] [%] | EC50 [11] [nM] | Cmax [12] [ng/mL] | AUC(0-t) at 24 h [13] [ng·h/mL] | half-life [19] [h] | clearance [20] [mL/min/kg] | bioavailability [21] [%] | half-life [33] [h] | clearance [34] [mL/min/kg] | bioavailability [35] [%] | other results |
| --- | --- | --- | --- | --- | --- | --- | --- | --- | --- | --- | --- | --- | --- | --- | --- | --- | --- | --- | --- | --- |
| O=C(O)COc1ccc(-c2ccc3c(c2)C[C@@H](NC[C@H](O)c2cccc(Cl)c2)CC3)cc1 | 5.8 | > 170 | > 1000 | 21.8 | 197 | – | – | – | – | – | > 1000 | – | – | – | – | – | 1.9 | 8.3 | 48 | – |
| O=C(O)c1cccc(Oc2ccc3c(c2)C[C@@H](NC[C@H](O)c2cccc(Cl)c2)CCC3)c1 | 4.5 | 35 | > 1000 | – | – | – | – | – | – | – | 160 | – | – | – | – | – | 3 | 6.8 | 69 | Cmax [36]: 65.7 ng/mL; AUC(0-t) at 24 h [37]: 538 ng·h/mL |
| O=C(O)COc1ccc2c(c1)C[C@@H](NC[C@H](O)c1cccc(Cl)c1)CC2 | 39 | 38 | > 10000 | 92.5 | 902 | – | – | – | – | – | 1500 | – | – | – | – | – | – | – | – | Cmax [38]: 28.1 ng/mL; AUC(0-t) at 24 h [39]: 177 ng·h/mL; half-life [40]: 3.8 h; clearance [41]: 3 mL/min/kg; bioavailability [42]: 83.2%; half-life [43]: 1.18 h; clearance [44]: 52.6 mL/min/kg; bioavailability [45]: 60% |

Now from value to molecule, other results behind:

| EC50 [1] [nM] | Ratio EC50 [2] | EC50 [3] [nM] | Cmax [4] [ng/mL] | AUC(0-t) at 24 h [5] [ng·h/mL] | Ratio [6] | Ratio AUC [7] | half-life [8] [h] | clearance [9] [mL/min/kg] | bioavailability [10] [%] | EC50 [11] [nM] | Cmax [12] [ng/mL] | AUC(0-t) at 24 h [13] [ng·h/mL] | half-life [19] [h] | clearance [20] [mL/min/kg] | bioavailability [21] [%] | SMILES | half-life [33] [h] | clearance [34] [mL/min/kg] | bioavailability [35] [%] | other results |
| --- | --- | --- | --- | --- | --- | --- | --- | --- | --- | --- | --- | --- | --- | --- | --- | --- | --- | --- | --- | --- |
| 3.2 | > 312 | > 1000 | 189 | 1470 | 1.18 | 0.83 | 3.94 | 2.38 | > 95 | > 1000 | – | – | – | – | – | CN(C)c1cc(Oc2ccc3c(c2)C[C@@H](NC[C@H](O)c2cccc(Cl)c2)CC3)cc(C(=O)O)c1 | – | – | – | – |
| 3.6 | > 277 | > 1000 | 64.4 | 860 | 0.5 | 0.48 | 5.9 | 3.1 | 76.8 | > 1000 | 59 | 313 | 8.2 | 15.7 | 28.8 | COc1ccc(Oc2ccc3c(c2)C[C@@H](NC[C@H](O)c2ccc(Cl)nc2)CC3)cc1C(=O)O | – | – | – | Cmax [14]: 164 ng/mL; AUC(0-t) at 24 h [15]: 1940 ng·h/mL; half-life [16]: 15.3 h; clearance [17]: 2.5 mL/min/kg; bioavailability [18]: 27.3%; EC50 [22]: 46 nM; inhibition in vivo at 0.032 mg/kg [23]: 57%; fraction unbound [24]: 0.1; Selectivity ratio [25]: 12.8 |
| 4.7 | > 217 | > 1000 | – | – | 0.64 | 0.76 | 8.3 | 1.4 | 64.2 | > 1000 | 319 | 1560 | 6.7 | 5.3 | 48 | COc1ccc(Oc2ccc3c(c2)C[C@@H](NC[C@H](O)c2ccc(Cl)cc2)CC3)cc1C(=O)O | – | – | – | Cmax [26]: 367 ng/mL; AUC(0-t) at 24 h [27]: 4580 ng·h/mL; Cmax [28]: 103 ng/mL; AUC(0-t) at 24 h [29]: 1530 ng·h/mL; half-life [30]: 11.9 h; clearance [31]: 2 mL/min/kg; bioavailability [32]: > 95% |
